From ChEMBL document CHEMBL5465560, “Selectivity Literature for EUbOPEN Chemogenomic Library” (2024)

How the values were obtained:
Activated CDC42 kinase 1 = Activated CDC42 kinase 1 (Homo sapiens, UniProt Q07912); experiment: Selectivity interaction (KinomeScan (DiscoverX)) EUB0000666a TNK2; conditions: at 10 µM
[1] = target: Ribosomal protein S6 kinase alpha-1 (Homo sapiens, UniProt Q15418); experiment: Selectivity interaction (Kinase panel (DSF assay)) EUB0001559a RPS6KA1
[2] = target: Chromatin remodeling regulator CECR2 (Homo sapiens, UniProt Q9BXF3); experiment: Selectivity interaction (Bromodomain panel (DSF asssay)) EUB0000270b CECR2
[3] = target: T1, Calcium/calmodulin-dependent protein kinase type IV (Homo sapiens) (UniProt Q16566); experiment: Selectivity interaction (Ambit KINOMEscan and KiNATiv profiling in Jurkat cells) EUB0000090b CAMK4; assay type: cell-based; conditions: at 1 µM
T1 sequence (whole entry): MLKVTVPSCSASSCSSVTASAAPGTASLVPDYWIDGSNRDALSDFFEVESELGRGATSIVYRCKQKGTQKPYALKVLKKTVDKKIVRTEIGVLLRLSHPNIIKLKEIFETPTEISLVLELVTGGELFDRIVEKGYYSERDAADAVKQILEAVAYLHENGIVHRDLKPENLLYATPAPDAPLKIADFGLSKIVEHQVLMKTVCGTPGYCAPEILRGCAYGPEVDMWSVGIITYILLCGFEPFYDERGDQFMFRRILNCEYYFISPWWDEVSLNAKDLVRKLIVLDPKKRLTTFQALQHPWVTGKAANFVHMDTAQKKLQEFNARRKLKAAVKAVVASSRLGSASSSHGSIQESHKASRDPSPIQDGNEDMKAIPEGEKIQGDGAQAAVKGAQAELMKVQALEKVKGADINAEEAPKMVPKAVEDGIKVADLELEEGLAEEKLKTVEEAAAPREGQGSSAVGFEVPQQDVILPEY

Aurora kinase B = Aurora kinase B (Homo sapiens, UniProt Q96GD4); experiment: Selectivity interaction (Kinase panel (Enzyme activity assay)) EUB0000612a AURKB
[4] = target: Proto-oncogene tyrosine-protein kinase Src (Homo sapiens, UniProt P12931); experiment: Selectivity interaction (KinomeScan (DiscoverX)) EUB0000655a SRC; conditions: at 10 µM
[5] = target: T2, MAP kinase-activated protein kinase 5 (Homo sapiens) (UniProt Q8IW41); experiment: Selectivity interaction (KinomeScan (DiscoverX)) EUB0000695a MAPKAPK5; conditions: at 100 nM
T2 sequence (whole entry): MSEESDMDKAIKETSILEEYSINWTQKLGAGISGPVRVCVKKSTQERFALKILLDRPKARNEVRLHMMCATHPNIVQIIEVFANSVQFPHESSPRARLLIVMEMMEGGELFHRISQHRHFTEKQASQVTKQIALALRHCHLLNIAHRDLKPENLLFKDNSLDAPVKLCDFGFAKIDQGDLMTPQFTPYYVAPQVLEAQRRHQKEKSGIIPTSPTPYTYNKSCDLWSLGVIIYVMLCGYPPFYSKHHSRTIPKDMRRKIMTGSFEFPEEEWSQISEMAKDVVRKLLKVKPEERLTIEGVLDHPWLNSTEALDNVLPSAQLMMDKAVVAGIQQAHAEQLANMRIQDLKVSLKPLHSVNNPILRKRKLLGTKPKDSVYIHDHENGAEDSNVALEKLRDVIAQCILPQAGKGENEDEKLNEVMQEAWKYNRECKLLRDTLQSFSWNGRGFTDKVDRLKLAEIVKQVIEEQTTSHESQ

[6] = target: T3, Cyclin-dependent kinase-like 2 (Homo sapiens) (UniProt Q92772); experiment: Selectivity interaction (KINOMEscan (DiscoverX)) EUB0001868a CDKL2; conditions: at 1 µM
T3 sequence (whole entry): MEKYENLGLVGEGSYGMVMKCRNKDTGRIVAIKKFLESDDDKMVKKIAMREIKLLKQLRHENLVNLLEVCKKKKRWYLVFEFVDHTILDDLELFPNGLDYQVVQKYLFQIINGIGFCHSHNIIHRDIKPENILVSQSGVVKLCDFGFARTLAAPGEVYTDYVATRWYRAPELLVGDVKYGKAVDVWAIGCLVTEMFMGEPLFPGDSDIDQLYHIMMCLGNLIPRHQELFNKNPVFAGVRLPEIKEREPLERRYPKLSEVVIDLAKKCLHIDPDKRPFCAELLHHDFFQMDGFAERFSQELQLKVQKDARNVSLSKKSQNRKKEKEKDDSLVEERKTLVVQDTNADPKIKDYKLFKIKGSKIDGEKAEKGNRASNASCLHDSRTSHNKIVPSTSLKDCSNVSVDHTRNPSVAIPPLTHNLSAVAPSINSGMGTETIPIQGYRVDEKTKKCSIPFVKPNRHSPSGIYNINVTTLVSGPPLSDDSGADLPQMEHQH

[7] = target: T4, TGF-beta receptor type-1 (Homo sapiens) (UniProt P36897); experiment: Selectivity interaction (ProQinase) EUB0000171b TGFBR1
T4 sequence (whole entry): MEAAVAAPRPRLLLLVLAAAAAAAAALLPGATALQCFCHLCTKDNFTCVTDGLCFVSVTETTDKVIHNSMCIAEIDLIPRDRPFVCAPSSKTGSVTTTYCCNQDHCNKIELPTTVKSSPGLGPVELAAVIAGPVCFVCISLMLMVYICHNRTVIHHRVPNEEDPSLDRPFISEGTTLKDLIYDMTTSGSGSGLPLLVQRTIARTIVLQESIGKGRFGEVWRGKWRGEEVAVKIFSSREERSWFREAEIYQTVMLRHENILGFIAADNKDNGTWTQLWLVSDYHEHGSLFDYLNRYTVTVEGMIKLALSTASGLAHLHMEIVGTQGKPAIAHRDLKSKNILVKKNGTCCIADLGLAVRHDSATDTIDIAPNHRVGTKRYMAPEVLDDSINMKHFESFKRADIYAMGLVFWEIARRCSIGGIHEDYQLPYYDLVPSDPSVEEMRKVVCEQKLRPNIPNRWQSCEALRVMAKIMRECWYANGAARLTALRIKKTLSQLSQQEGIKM

Proto-oncogene tyrosine-protein kinase Src, sequence (P12931 2-536 limits assumed): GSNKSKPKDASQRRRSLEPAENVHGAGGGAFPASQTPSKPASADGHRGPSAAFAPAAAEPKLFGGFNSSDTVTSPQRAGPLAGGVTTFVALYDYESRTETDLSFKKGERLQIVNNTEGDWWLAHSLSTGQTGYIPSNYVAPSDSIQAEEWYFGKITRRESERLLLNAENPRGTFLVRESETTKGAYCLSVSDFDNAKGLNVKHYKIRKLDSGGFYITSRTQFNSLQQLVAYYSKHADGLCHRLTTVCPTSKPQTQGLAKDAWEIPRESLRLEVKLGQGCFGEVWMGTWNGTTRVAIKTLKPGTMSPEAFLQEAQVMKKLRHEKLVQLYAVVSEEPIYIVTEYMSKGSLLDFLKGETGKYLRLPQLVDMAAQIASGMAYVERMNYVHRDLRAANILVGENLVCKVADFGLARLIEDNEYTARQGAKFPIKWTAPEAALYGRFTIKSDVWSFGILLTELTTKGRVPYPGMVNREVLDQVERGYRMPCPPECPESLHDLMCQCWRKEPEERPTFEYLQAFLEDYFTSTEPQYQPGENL
Chromatin remodeling regulator CECR2, sequence (Q9BXF3 whole entry, looked up): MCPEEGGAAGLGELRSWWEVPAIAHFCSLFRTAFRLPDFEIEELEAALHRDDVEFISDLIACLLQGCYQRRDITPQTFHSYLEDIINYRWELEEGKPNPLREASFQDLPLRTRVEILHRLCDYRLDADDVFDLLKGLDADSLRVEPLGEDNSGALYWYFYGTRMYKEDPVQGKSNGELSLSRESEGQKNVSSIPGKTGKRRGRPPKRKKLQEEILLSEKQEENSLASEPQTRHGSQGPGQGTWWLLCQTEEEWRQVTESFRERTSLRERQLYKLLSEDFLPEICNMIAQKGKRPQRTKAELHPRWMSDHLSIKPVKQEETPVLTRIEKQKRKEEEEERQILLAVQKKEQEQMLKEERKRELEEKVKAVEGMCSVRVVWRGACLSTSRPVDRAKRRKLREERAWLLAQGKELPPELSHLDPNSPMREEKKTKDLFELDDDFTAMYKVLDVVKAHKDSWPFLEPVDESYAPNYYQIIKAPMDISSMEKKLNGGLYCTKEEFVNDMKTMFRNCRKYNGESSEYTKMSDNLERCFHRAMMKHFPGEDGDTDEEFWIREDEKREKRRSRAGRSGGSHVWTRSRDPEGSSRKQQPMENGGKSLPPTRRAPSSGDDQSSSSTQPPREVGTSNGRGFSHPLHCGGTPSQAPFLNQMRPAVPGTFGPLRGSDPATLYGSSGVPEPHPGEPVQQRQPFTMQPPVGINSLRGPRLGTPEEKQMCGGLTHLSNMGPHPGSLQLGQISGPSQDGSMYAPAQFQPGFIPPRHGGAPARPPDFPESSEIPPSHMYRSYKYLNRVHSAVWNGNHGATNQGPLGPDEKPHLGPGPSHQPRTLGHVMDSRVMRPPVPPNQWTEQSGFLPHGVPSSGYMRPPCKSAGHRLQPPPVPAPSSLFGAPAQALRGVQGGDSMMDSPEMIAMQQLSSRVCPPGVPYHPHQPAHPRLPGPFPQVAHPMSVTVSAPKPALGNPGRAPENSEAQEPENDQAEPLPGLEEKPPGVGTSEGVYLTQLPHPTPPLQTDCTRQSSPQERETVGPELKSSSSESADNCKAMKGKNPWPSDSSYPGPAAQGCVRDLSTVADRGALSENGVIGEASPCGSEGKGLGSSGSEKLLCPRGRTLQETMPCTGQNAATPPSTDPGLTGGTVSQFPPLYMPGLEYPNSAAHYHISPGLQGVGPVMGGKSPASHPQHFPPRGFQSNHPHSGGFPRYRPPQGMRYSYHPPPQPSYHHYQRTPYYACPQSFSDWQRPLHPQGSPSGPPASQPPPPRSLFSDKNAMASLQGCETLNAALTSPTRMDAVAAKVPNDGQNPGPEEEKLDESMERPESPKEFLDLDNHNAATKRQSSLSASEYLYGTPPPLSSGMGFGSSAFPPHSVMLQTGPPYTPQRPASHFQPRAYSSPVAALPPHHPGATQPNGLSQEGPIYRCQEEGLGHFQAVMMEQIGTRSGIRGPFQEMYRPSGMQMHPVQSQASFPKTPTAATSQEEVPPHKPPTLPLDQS
Activated CDC42 kinase 1, sequence (Q07912 whole entry, looked up): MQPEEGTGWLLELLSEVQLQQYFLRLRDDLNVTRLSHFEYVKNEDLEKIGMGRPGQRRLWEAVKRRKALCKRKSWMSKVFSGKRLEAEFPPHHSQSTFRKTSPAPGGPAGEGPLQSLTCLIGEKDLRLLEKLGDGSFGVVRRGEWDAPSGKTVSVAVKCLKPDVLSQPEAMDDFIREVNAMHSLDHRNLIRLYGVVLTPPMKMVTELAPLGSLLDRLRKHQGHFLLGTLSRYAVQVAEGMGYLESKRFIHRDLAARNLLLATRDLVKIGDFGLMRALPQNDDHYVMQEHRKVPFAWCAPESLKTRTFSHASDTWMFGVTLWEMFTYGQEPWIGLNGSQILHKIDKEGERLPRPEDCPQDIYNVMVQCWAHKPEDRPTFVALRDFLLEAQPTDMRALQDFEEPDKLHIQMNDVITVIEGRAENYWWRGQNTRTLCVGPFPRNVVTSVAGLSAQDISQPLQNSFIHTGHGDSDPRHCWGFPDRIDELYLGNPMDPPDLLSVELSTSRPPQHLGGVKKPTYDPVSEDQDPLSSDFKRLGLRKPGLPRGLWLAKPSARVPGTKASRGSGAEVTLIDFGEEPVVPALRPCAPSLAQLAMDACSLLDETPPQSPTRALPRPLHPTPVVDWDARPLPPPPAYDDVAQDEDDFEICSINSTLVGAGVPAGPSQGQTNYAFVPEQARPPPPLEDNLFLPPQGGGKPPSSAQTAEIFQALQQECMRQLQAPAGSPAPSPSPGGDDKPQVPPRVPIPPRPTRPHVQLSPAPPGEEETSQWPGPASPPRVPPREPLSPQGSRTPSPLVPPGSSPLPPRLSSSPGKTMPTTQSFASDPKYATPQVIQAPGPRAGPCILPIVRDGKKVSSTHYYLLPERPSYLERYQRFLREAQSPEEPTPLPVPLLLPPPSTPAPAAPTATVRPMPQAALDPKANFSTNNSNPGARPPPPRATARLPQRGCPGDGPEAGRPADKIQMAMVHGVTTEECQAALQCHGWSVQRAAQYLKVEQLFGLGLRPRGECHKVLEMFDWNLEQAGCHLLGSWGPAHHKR
Ribosomal protein S6 kinase alpha-1, sequence (Q15418 whole entry): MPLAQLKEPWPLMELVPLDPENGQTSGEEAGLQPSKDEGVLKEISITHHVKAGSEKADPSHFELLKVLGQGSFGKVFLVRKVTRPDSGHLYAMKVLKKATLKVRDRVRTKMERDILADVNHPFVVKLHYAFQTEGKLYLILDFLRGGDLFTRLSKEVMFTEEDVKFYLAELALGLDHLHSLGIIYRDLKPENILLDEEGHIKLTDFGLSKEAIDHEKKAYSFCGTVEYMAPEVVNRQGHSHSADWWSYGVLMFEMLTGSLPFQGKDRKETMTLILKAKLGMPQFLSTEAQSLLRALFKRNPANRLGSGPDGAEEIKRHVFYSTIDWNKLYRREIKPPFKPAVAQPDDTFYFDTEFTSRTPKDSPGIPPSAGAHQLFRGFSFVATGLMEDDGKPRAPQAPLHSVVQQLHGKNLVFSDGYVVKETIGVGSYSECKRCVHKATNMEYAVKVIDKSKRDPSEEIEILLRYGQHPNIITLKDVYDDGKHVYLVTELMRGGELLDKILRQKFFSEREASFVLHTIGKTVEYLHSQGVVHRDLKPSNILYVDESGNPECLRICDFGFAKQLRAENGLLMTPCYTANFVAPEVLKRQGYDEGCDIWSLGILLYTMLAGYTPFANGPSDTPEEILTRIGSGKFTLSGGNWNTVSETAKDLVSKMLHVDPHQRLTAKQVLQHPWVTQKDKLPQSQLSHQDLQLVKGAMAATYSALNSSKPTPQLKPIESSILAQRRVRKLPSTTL
Aurora kinase B, sequence (Q96GD4 whole entry): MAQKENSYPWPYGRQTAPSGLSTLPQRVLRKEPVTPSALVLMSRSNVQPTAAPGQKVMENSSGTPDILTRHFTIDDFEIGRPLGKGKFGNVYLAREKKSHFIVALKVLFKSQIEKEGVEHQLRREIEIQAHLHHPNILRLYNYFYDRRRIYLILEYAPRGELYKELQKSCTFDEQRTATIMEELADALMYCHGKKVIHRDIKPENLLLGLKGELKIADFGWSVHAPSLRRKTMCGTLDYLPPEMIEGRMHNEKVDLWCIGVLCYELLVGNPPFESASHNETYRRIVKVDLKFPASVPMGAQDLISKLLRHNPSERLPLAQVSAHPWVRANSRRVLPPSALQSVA

`O=C(NOC[C@H](O)CO)c1ccc(F)c(F)c1Nc1ccc(I)cc1F` showed a % of control (Activated CDC42 kinase 1) of 72%.
Work on `CN(C(=O)c1cnn2cccnc12)c1cc2c(cc1N1CCOCC1)C(=O)N(C[C@@H](F)C(C)(C)O)C2` yielded a dTM [1] of 0.5 K.
Molecule `Cc1cc(CN)cc(C)c1-c1ncn(C)c1-c1cncn1C` has a dTM [2] of -0.68 K.
`CN(C)C/C=C/C(=O)Nc1ccc(C(=O)N2CCCC(Nc3ncc(Cl)c(-c4c[nH]c5ccccc45)n3)C2)cc1` (stereo not given) showed a % of control [3] of 69%.
Work on `CCc1cccc(CC)c1NC(=O)c1nn(C)c2c1CCc1cnc(Nc3ccc(C(=O)NC4CCN(C)CC4)cc3OC(F)(F)F)nc1-2` yielded an IC50 (Aurora kinase B) of over 10 µM.
`CN(C)CCOc1ccc(-c2nc(-c3ccncc3)c(-c3ccc4c(c3)CC/C4=N\O)[nH]2)cc1` gave a % of control [4] of 77%.
Work on `Cc1cc(F)c(C(=O)Nc2cccc(-c3nncn3C(C)C)n2)cc1-n1cnc(C2CC2)c1` yielded a % of control [5] of 76%.
In the case of `Cc1cc(-c2ccnc(Nc3cnn(C)c3)n2)ccc1CNC(=O)N1CC(OC(C)C)C1`, the % of control [6] is reported as 15%.
Molecule `C=CC(=O)Nc1cccc(C(=O)Nc2ccc(Nc3cc(-c4[nH]c(SC)nc4C)ccn3)cc2)c1` has a % of control ([7]; at 1 µM) of 106% and a % of control ([7]; at 5 µM) of 92%.
